# Source: ChEMBL document CHEMBL4725439, “Direct Comparison of (N)-Methanocarba and Ribose-Containing 2-Arylalkynyladenosine Derivatives as A Receptor Agonists” (ACS Med Chem Lett, 2020)
# Activity calls are given as the source filed them. No cut-off for these calls is given here.
# Columns and labels:
# Adenosine receptor A1 [1] = target: T1, Adenosine receptor A1 (Homo sapiens, UniProt P30542); assay: Displacement of [3H]N6-R-phenylisopropyladenosine from human A1AR receptor expressed in HEK293 cells assessed as inhibitory constant by radio ligand binding assay; type: cell-based
# T1 sequence (P30542 whole entry): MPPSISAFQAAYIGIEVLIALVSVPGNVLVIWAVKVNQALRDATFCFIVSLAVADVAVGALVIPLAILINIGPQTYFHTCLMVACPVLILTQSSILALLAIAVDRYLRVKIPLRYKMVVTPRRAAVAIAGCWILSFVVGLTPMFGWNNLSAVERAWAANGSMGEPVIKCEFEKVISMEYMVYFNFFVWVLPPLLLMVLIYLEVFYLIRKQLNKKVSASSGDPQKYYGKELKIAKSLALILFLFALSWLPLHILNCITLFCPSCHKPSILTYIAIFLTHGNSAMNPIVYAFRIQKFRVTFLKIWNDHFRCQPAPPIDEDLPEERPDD
# Adenosine receptor A1 [2] = target: T2, Adenosine receptor A1 (Mus musculus, UniProt Q60612); assay: Displacement of [125I]AB-MECA from recombinant mouse A1AR expressed in HEK293 cells assessed as inhibitory constant by radio ligand binding assay; type: cell-based
# T2 sequence (Q60612 whole entry): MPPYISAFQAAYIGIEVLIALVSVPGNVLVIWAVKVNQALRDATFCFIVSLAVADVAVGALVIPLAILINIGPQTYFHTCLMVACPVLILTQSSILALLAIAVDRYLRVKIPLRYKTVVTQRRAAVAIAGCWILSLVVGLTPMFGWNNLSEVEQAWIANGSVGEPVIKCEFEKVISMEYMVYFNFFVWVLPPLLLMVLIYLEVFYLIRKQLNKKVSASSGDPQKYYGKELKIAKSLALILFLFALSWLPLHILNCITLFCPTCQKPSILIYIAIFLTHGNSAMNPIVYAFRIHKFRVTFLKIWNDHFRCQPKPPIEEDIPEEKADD
# Adenosine receptor A2a [3] = target: T3, Adenosine receptor A2a (Homo sapiens, UniProt P29274); assay: Displacement of [3H]2-[p-(2-carboxyethyl)phenyl-ethylamino]-5'-N-ethylcarboxamidoadenosine from human A2A receptor expressed in HEK293 cells at 10 uM by radio ligand binding assay relative to control; type: cell-based
# T3 sequence (P29274 whole entry): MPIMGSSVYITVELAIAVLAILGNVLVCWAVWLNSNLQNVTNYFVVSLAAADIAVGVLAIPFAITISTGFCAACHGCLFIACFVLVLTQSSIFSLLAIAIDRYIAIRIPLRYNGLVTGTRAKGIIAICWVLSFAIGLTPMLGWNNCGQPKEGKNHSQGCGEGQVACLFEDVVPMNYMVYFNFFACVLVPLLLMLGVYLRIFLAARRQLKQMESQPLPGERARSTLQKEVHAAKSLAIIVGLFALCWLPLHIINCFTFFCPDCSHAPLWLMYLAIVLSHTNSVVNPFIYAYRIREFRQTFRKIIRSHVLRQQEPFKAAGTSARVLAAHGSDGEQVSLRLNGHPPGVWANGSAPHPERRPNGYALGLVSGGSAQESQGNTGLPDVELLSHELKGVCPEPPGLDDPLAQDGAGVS
# Adenosine receptor A3 [4] = target: T4, Adenosine receptor A3 (Homo sapiens, UniProt P0DMS8); assay: Displacement of [125I]N6-(4-amino-3-iodobenzyl)adenosine-5'-N-methyluronamide from human […] expressed in CHO cell membranes assessed as inhibitor constant by radio ligand binding assay
# T4 sequence (P0DMS8 whole entry): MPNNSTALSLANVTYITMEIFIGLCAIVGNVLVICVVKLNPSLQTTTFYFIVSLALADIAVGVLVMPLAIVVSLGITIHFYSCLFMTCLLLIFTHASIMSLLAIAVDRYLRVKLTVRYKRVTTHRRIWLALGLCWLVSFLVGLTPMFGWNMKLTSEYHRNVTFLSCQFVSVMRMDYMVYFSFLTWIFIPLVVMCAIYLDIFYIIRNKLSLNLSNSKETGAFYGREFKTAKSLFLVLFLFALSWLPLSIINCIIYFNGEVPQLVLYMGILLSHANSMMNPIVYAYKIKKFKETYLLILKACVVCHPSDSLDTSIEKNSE
# Adenosine receptor A3 [5] = target: T5, Adenosine receptor A3 (Mus musculus, UniProt Q61618); assay: Displacement of [125I]AB-MECA from mouse […] expressed in HEK293 cell membranes assessed as inhibitor constant by radio ligand binding assay
# T5 sequence (Q61618 whole entry): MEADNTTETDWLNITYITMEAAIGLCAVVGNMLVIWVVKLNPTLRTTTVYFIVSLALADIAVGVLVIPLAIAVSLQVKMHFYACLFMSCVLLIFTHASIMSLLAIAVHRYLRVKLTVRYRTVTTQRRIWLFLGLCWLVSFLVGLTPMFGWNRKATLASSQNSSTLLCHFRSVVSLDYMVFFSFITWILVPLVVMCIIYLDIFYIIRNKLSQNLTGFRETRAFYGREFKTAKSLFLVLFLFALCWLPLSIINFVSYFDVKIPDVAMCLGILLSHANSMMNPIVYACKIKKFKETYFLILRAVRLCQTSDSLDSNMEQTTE
# [6] = target: T6, Adenosine receptor A1 (Homo sapiens) (UniProt P30542); assay: Displacement of [3H]N6-R-phenylisopropyladenosine from human A1AR expressed in HEK293 cells at 10 uM by radio ligand binding assay relative to control; type: cell-based
# T6 sequence (whole entry): T1 sequence (P30542 whole entry)
# [7] = target: T7, Adenosine receptor A1 (Mus musculus) (UniProt Q60612); assay: Displacement of [125I]AB-MECA from recombinant mouse A1AR expressed in HEK293 cells at 10 uM by radio ligand binding assay relative to control; type: cell-based; conditions: filed as agonist
# T7 sequence (whole entry): T2 sequence (Q60612 whole entry)
# [8] = target: Beta-3 adrenergic receptor (Homo sapiens) (UniProt P13945); assay: Displacement of [125I]-Pindolol from human beta3 adrenergic receptor expressed in expressed in HEK Flp-In cells measured after 90 mins by microbeta scintillation counting method; type: cell-based
# Beta-3 adrenergic receptor (Homo sapiens), sequence (P13945 whole entry, looked up): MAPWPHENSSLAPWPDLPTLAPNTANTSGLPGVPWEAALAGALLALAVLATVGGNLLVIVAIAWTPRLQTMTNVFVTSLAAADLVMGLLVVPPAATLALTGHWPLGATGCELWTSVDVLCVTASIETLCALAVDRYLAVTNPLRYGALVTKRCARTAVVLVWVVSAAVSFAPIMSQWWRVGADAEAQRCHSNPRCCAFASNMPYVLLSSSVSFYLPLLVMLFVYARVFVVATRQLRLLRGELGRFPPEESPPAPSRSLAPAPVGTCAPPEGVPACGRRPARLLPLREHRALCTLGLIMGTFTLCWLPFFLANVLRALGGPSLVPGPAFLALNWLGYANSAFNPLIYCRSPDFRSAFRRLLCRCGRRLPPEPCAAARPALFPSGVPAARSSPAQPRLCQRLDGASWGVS
# [9] = target: Adenosine receptor A2a (Mus musculus) (UniProt Q60613); assay: Displacement of [3H]CGS21680 from mouse A2A receptor expressed in HEK293 cells at 10 uM by radio ligand binding assay relative to control; type: cell-based
# Adenosine receptor A2a (Mus musculus), sequence (Q60613 whole entry): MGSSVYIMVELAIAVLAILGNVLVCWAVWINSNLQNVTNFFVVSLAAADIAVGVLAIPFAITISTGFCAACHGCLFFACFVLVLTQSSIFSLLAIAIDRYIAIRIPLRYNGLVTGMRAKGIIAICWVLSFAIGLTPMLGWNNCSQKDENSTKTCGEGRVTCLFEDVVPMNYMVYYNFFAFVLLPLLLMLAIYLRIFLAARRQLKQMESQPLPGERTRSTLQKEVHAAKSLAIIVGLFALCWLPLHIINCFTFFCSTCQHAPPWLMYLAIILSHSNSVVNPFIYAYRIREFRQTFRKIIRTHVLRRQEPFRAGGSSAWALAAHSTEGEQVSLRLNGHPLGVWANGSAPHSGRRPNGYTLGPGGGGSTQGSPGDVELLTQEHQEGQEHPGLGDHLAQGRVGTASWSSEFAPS
# Adenosine receptor A2a [10] = target: T3, Adenosine receptor A2a; assay: Displacement of [3H]2-[p-(2-carboxyethyl)phenyl-ethylamino]-5'-N-ethylcarboxamidoadenosine from human A2A receptor expressed in HEK293 cells assessed as inhibitor constant by radio ligand binding assay; type: cell-based
# [11] = Stability in Sprague-Dawley rat plasma; type: ADME, cell-free
# [12] = Stability in Sprague-Dawley rat liver microsomes; type: ADME, Microsome
# HepG2 = assay: Cytotoxicity against human HepG2 cells; type: cell-based
# [13] = Oral bioavailability in Sprague-Dawley rat; type: ADME, organism-based; conditions: in vivo
# [14] = target: T8, Adenosine receptor A2b (Homo sapiens) (UniProt P29275); assay: Agonist activity at Gs-coupled human A2B […] receptor expressed in CHO at 10 uM by cAMP based assay; type: functional, cell-based
# T8 sequence (whole entry): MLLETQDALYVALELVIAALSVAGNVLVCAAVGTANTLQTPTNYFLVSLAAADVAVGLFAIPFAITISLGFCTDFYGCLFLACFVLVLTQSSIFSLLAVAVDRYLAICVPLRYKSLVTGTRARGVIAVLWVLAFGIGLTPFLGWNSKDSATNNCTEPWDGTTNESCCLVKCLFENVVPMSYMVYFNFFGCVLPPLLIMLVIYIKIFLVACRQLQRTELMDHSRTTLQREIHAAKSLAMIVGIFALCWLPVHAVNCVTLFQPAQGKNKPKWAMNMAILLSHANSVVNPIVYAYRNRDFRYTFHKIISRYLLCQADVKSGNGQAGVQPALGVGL
# Adenosine receptor A3 [15] = target: T4, Adenosine receptor A3; assay: Binding affinity to human A3AR assessed as inhibitor constant
# [16] = target: 5-hydroxytryptamine receptor 2B (Homo sapiens, UniProt P41595); assay: Displacement of [3H]-LSD from recombinant human 5HT2B receptor expressed in stable HEK cells after 90 mins by microbeta scintillation counting method; type: cell-based
# 5-hydroxytryptamine receptor 2B, sequence (P41595 whole entry): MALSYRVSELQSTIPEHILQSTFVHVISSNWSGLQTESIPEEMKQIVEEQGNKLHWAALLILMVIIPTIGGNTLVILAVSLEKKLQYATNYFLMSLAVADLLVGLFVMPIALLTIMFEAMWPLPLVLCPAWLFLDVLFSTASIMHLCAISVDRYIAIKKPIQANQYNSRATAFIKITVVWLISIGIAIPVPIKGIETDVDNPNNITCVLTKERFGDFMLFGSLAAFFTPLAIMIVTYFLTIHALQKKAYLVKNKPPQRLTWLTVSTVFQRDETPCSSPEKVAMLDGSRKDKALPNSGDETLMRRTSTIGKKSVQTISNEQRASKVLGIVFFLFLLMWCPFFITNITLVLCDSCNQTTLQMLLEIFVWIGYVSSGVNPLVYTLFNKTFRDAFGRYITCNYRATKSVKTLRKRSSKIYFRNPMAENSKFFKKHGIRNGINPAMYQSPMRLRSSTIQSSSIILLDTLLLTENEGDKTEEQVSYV
# [17] = target: Sodium-dependent dopamine transporter (Homo sapiens, UniProt Q01959); assay: Displacement of [3H]-Win35428 from human recombinant DAT receptor expressed in stable HEK cells after 90 mins by microbeta scintillation counting method; type: cell-based
# Sodium-dependent dopamine transporter, sequence (Q01959 whole entry): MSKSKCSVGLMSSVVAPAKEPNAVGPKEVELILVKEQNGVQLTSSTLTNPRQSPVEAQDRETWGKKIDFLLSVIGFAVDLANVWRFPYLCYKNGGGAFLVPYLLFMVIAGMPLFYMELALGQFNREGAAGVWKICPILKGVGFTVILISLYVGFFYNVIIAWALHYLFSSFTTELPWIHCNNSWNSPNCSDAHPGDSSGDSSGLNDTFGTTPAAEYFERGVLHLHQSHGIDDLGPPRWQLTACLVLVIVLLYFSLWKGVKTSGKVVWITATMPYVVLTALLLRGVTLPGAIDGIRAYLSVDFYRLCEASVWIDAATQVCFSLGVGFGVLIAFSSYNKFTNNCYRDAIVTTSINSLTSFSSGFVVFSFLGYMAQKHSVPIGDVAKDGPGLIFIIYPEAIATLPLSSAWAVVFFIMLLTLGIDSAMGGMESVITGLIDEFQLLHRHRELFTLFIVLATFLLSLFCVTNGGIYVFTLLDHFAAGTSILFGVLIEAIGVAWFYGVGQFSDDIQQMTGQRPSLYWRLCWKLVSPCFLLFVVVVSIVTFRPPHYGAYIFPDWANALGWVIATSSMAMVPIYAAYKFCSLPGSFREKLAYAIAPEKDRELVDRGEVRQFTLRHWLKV
smiles,measurement,setting,value
CCOC(=O)[C@@]12C[C@@H]1[C@@H](n1cnc3c(NC)nc(C#Cc4ccc(F)s4)nc31)[C@H](O)[C@@H]2O,Ki,Adenosine receptor A1 [1],1670 nM
same,Ki,Adenosine receptor A1 [2],864 nM
same,inhibition,Adenosine receptor A2a [3],27%
same,Ki,Adenosine receptor A3 [4],10.4 nM
same,Ki,Adenosine receptor A3 [5],625 nM
CCCNc1nc(C#Cc2ccc(Cl)s2)nc2c1ncn2[C@@H]1O[C@H](C(=O)NC)[C@@H](O)[C@H]1O,Ki,Adenosine receptor A1 [1],1160 nM
same,Ki,Adenosine receptor A1 [2],315 nM
same,inhibition,Adenosine receptor A2a [3]; filed as agonist,49%
CCNc1cc(C#Cc2ccc(F)s2)nc2c1ncn2[C@H]1[C@H](O)[C@H](O)[C@]2(C(=O)NC)C[C@H]12,inhibition,[6],31%
same,inhibition,[7],53%
same,inhibition,Adenosine receptor A2a [3]; filed as agonist,61%
same,Ki,Adenosine receptor A3 [4],2.78 nM
same,Ki,Adenosine receptor A3 [5],25 nM
same,Activity,[8],Active
same,inhibition,[9],4%
CNC(=O)[C@@]12C[C@@H]1[C@@H](n1cnc3c(NC)nc(C#Cc4ccc(F)s4)nc31)[C@H](O)[C@@H]2O,inhibition,[6],33%
same,Ki,Adenosine receptor A1 [2],3260 nM
same,Ki,Adenosine receptor A2a [10],4620 nM
same,Ki,Adenosine receptor A3 [4],0.28 nM
same,Ki,Adenosine receptor A3 [5],85 nM
same,Stabilty,[11],Stable
same,Stabilty,[12],Stable
same,Activity,HepG2,Non-Toxic
same,bioavailability,[13],14%
same,inhibition,[9],5%
CNc1nc(C#Cc2ccc(Cl)s2)nc2c1ncn2[C@H]1[C@H](O)[C@H](O)[C@]2(C(=O)OC)C[C@H]12,inhibition,[6],24%
same,inhibition,Adenosine receptor A2a [3],20%
CNC(=O)[C@H]1O[C@@H](n2cnc3c(NC)nc(C#Cc4ccc(Cl)s4)nc32)[C@H](O)[C@@H]1O,inhibition,[6]; filed as agonist,58%
same,Ki,Adenosine receptor A1 [2],4170 nM
same,inhibition,Adenosine receptor A2a [3],7%
CNC(=O)[C@H]1O[C@@H](n2cnc3c(NC)cc(C#Cc4ccc(F)s4)nc32)[C@H](O)[C@@H]1O,inhibition,[6]; filed as agonist,47%
same,inhibition,Adenosine receptor A2a [3],15%
same,Ki,Adenosine receptor A3 [4],26.6 nM
same,Ki,Adenosine receptor A3 [5],1200 nM
CCNc1nc(C#Cc2ccc(Cl)s2)nc2c1ncn2[C@H]1[C@H](O)[C@H](O)[C@]2(C(=O)NC)C[C@H]12,Stabilty,[11],Stable
same,Stabilty,[12],Stable
same,Activity,HepG2,Non-Toxic
same,bioavailability,[13],14%
CCOC(=O)[C@@]12C[C@@H]1[C@@H](n1cnc3c(NC)cc(C#Cc4ccc(Cl)s4)nc31)[C@H](O)[C@@H]2O,inhibition,[6],17%
same,inhibition,[7],54%
same,inhibition,Adenosine receptor A2a [3],18%
same,inhibition,[9],5%
CNC(=O)[C@H]1O[C@@H](n2cnc3c(NC)nc(C#Cc4ccc(F)s4)nc32)[C@H](O)[C@@H]1O,Ki,Adenosine receptor A1 [1],432 nM
same,inhibition,Adenosine receptor A2a [3]; filed as agonist,45%
same,Ki,Adenosine receptor A3 [4],2.3 nM
same,Ki,Adenosine receptor A3 [5],1510 nM
CCNc1cc(C#Cc2ccc(Cl)s2)nc2c1ncn2[C@H]1[C@H](O)[C@H](O)[C@]2(C(=O)NC)C[C@H]12,Activity,[8],Active
same,Stabilty,[11],Stable
same,Stabilty,[12],Stable
same,Activity,HepG2,Non-Toxic
same,bioavailability,[13],14%
CNC(=O)[C@@]12C[C@@H]1[C@@H](n1cnc3c(NC)nc(C#Cc4ccc(Cl)s4)nc31)[C@H](O)[C@@H]2O,Activity,[14],inactive
same,Stabilty,[11],Stable
same,Stabilty,[12],Stable
same,Activity,HepG2,Non-Toxic
same,bioavailability,[13],14%
CNc1nc(C#Cc2ccc(Cl)s2)nc2c1ncn2[C@@H]1O[C@H](C(=O)OC)[C@@H](O)[C@H]1O,inhibition,[6]; filed as agonist,46%
same,inhibition,[7],53%
same,inhibition,Adenosine receptor A2a [3],8%
same,inhibition,[9],12%
CCCNc1nc(C#Cc2ccc(F)s2)nc2c1ncn2[C@@H]1O[C@H](C(=O)NC)[C@@H](O)[C@H]1O,Ki,Adenosine receptor A1 [1],369 nM
same,Ki,Adenosine receptor A2a [10],2460 nM
same,Ki,Adenosine receptor A3 [4],8.51 nM
same,Ki,Adenosine receptor A3 [5],435 nM
CNC(=O)[C@@]12C[C@@H]1[C@@H](n1cnc3c(NC)cc(C#Cc4ccc(F)s4)nc31)[C@H](O)[C@@H]2O,inhibition,[6],20%
same,inhibition,[7],51%
same,inhibition,Adenosine receptor A2a [3]; filed as agonist,56%
same,Ki,Adenosine receptor A3 [4],0.896 nM
same,Ki,Adenosine receptor A3 [5],37 nM
same,Activity,[8],Active
same,inhibition,[9],6%
CCCNc1nc(C#Cc2ccc(F)s2)nc2c1ncn2[C@H]1[C@H](O)[C@H](O)[C@]2(C(=O)NC)C[C@H]12,Ki,Adenosine receptor A1 [1],3980 nM
same,Ki,Adenosine receptor A2a [10],838 nM
same,Ki,Adenosine receptor A3 [4],1.13 nM
same,Ki,Adenosine receptor A3 [5],10.6 nM
same,Stabilty,[11],Stable
same,Stabilty,[12],Stable
same,Activity,HepG2,Non-Toxic
same,bioavailability,[13],14%
CCNC(=O)[C@H]1O[C@@H](n2cnc3c(NC)nc(C#C[C@@H](O)c4ccccc4)nc32)[C@H](O)[C@@H]1O,Ki,Adenosine receptor A3 [15],0.75 nM
CCCNc1cc(C#Cc2ccc(Cl)s2)nc2c1ncn2[C@H]1[C@H](O)[C@H](O)[C@]2(C(=O)NC)C[C@H]12,Ki,[16],760 nM
same,Ki,[17],3940 nM
CNC(=O)[C@@]12C[C@@H]1[C@@H](n1cnc3c(NC)cc(C#Cc4ccc(Cl)s4)nc31)[C@H](O)[C@@H]2O,Activity,[8],Active
CCCNc1nc(C#Cc2ccc(Cl)s2)nc2c1ncn2[C@H]1[C@H](O)[C@H](O)[C@]2(C(=O)NC)C[C@H]12,Activity,[8],Active
